Assay results from ChEMBL document CHEMBL3769406, “A phenotypic drug discovery study on thienodiazepine derivatives as inhibitors of T cell proliferation induced by CD28 co-stimulation leads to the discovery of a first bromodomain inhibitor” (Bioorg Med Chem Lett, 2016).
The source made the active and inactive calls. The rule behind the calls is not given here.

Tests used:
[1] = Immunosuppressive activity in BALB/c mouse splenic T cells assessed as inhibition of PMA/CD28 induced cell proliferation after 24 hrs by [methyl-3H]thymidine incorporation assay; type: functional, cell-based
[2] = Cytotoxicity against mouse M1 cells after 72 hrs by WST-8 assay; type: functional; conditions: M1, 72 h
[3] = Cytotoxicity against human HL60 cells after 72 hrs by WST-8 assay; type: functional; conditions: HL-60, 72 h
A2780 = test: Cytotoxicity against human A2780 cells after 72 hrs by WST-8 assay; type: functional; conditions: A2780, 72 h
[4] = Cytotoxicity against human SKOV3 cells after 72 hrs by WST-8 assay; type: functional; conditions: SK-OV-3, 72 h
Mus musculus = test: Immunosuppressive activity in collagen-induced DBA/1J mouse arthritis model at 0.3 to 1 mg/kg, po administered for […] of immunization with bovine type II collagen measured at 21 to 42 days after primary immunization; type: functional, organism-based
[5] = molecular target: Bromodomain-containing protein 2 (Homo sapiens) (UniProt P25440); test: (§1) Competitive inhibition of BRD2 in PMA /ionomycin activated human Jurkat cell lysate in presence of (S)-4-{3'-Cyano-4'-[3-(3-{2-[5-((3aR,6S,6aS)-2-oxo-hexahydro-thieno[3,4-d]imidazol-6-yl)-pentanoylamino]-ethyldisulfanyl}-propionylamino)-propoxy]-biphenyl-4-yl}-2,3,9-trimethyl-6H-1-thia-5,7,8,9a-tetraaza-cyclopenta[e]azulene-6-yl]acetic acid ethyl ester/avidin-resin by pull down assay; type: cell-based
[6] = molecular target: Bromodomain-containing protein 3 (Homo sapiens) (UniProt Q15059); test: as §1, with “BRD3” for “BRD2”; type: cell-based
[7] = molecular target: T1, Bromodomain-containing protein 4 (Homo sapiens, UniProt O60885); test: as §1, with “BRD4” for “BRD2”; type: cell-based
[8] = molecular target: T1, Bromodomain-containing protein 4; test: Inhibition of Flag-tagged BRD4 (unknown origin)-biotinylated AcH4 (Lys5, 8, 12, 16) histone peptide binding expressed in CHO cells after 60 mins by TR-FRET assay; type: cell-based
[9] = molecular target: Bromodomain-containing protein 3 (Homo sapiens) (UniProt Q15059); test: Inhibition of Flag-tagged BRD3 (unknown origin)-biotinylated AcH4 (Lys5, 8, 12, 16) histone peptide binding expressed in CHO cells after 60 mins by TR-FRET assay; type: cell-based
[10] = molecular target: Bromodomain-containing protein 2 (Homo sapiens) (UniProt P25440); test: Inhibition of Flag-tagged BRD2 (unknown origin)-biotinylated AcH4 (Lys5, 8, 12, 16) histone peptide binding expressed in CHO cells after 60 mins by TR-FRET assay; type: cell-based
[11] = Cytotoxicity against human MV411 cells after 72 hrs by WST-8 assay; type: functional; conditions: MV4-11, 72 h
Daudi = test: Cytotoxicity against human Daudi cells after 72 hrs by WST-8 assay; type: functional
[12] = Cytotoxicity against human U937 cells after 72 hrs by WST-8 assay; type: functional; conditions: U-937, 72 h
[13] = Cytotoxicity against human RPMI8226 cells after 72 hrs by WST-8 assay; type: functional; conditions: RPMI-8226, 72 h
B16 = test: Cytotoxicity against mouse B16 cells after 72 hrs by WST-8 assay; type: functional; conditions: B16, 72 h
[14] = Cytotoxicity against human KIM1 cells after 72 hrs by WST-8 assay; type: functional; conditions: KIM1, 72 h
LNCaP = test: Cytotoxicity against human LNCAP cells after 72 hrs by WST-8 assay; type: functional
[15] = Cytotoxicity against human EBC1 cells after 72 hrs by WST-8 assay; type: functional; conditions: EBC-1, 72 h
A549 = test: Cytotoxicity against human A549 cells after 72 hrs by WST-8 assay; type: functional; conditions: A549, 72 h
[16] = Cytotoxicity against human LN18 cells after 72 hrs by WST-8 assay; type: functional; conditions: LN-18, 72 h
[17] = Cytotoxicity against human U87MG cells after 72 hrs by WST-8 assay; type: functional, U-87MG ATCC; conditions: U-87 MG
HeLa = test: Cytotoxicity against human HeLa cells after 72 hrs by WST-8 assay; type: functional
[18] = Cytotoxicity against human COLO205 cells after 72 hrs by WST-8 assay; type: functional; conditions: COLO 205, 72 h
[19] = Cytotoxicity against mouse LLC cells after 72 hrs by WST-8 assay; type: functional; conditions: Lewis lung carcinoma
[20] = Antitumor activity against human HL60 cells xenografted in nude mouse assessed as inhibition of relative tumor growth at 10 mg/kg, po qd administered for 14 days; type: functional; conditions: HL-60, po, 336 h, read-out: TGI
[21] = Antitumor activity against human HL60 cells xenografted in nude mouse assessed as inhibition of relative tumor growth at 30 mg/kg, po qd administered for 14 days; type: functional; conditions: HL-60, po, 336 h, read-out: TGI
[22] = Antitumor activity against human HL60 cells xenografted in nude mouse assessed as inhibition of relative tumor growth at 10 mg/kg, po bid administered for 14 days; type: functional; conditions: HL-60, po, 336 h, read-out: TGI

Chain of Bromodomain-containing protein 3 (Homo sapiens) (Q15059 2-726 limits assumed): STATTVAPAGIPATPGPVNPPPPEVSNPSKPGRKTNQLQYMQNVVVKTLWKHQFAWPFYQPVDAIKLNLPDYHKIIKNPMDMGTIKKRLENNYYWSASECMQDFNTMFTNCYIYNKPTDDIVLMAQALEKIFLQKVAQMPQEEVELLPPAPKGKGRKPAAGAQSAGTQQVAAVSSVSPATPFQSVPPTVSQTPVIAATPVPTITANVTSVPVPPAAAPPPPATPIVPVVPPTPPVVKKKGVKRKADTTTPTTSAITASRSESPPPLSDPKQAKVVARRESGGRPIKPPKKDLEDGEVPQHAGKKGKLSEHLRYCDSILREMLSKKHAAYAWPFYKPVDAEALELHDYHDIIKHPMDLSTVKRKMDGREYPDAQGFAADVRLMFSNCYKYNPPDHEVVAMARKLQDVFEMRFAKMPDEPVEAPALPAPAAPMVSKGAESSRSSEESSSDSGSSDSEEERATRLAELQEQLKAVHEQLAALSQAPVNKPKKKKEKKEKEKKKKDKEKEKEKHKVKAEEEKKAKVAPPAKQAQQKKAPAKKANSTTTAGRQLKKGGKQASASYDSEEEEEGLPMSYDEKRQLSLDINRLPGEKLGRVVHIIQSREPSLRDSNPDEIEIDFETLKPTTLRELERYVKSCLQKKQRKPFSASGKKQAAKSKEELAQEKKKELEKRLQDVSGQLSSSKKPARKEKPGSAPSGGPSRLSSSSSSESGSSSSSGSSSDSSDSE
Chain of Bromodomain-containing protein 2 (Homo sapiens) (P25440 whole entry, looked up): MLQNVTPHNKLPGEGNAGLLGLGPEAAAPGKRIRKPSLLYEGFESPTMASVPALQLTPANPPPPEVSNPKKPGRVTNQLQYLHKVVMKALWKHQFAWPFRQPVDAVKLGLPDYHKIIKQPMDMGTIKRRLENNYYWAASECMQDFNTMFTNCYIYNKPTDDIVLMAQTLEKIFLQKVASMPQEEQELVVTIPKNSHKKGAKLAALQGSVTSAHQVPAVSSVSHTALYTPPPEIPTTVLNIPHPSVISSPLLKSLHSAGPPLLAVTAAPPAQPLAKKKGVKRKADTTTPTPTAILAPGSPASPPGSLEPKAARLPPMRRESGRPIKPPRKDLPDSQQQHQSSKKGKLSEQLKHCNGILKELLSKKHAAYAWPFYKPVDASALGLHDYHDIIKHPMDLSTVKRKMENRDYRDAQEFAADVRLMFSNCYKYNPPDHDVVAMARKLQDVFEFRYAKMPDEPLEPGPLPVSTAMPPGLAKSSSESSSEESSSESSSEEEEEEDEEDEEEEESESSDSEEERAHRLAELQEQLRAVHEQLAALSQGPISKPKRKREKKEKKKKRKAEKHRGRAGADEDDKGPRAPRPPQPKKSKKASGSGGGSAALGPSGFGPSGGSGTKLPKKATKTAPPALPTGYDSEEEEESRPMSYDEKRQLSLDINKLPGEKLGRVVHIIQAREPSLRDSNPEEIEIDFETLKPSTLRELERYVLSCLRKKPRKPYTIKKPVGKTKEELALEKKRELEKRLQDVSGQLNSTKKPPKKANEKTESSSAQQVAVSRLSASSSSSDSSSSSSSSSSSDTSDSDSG

Q: For `Cc1sc2c(c1C)C(c1ccc(Cl)cc1)=N[C@@H](CCO)c1nnc(C)n1-2`, which IC50 [1] is on record?
A: 580 nM

Q: For `COC(=O)C[C@@H]1N=C(c2ccc(-c3cccc(C(C)=O)c3)cc2)c2c(sc(C)c2C)-n2c(C)nnc21`, which IC50 [1] is on record?
A: 15 nM

Q: For `COC(=O)C[C@@H]1N=C(c2ccc(-c3cccc(O)c3)cc2)c2c(sc(C)c2C)-n2c(C)nnc21`, which IC50 [1] is on record?
A: 32 nM

Q: With `Cc1sc2c(c1C)C(c1ccc(Cl)cc1)=NC(Cc1ccncc1)c1nnc(C)n1-2` (racemic) as the compound, how does the IC50 [1] read?
A: 240 nM

Q: For `COC(=O)C[C@@H]1N=C(c2ccc(-c3cccc(OC)c3)cc2)c2c(sc(C)c2C)-n2c(C)nnc21`, which IC50 [1] is on record?
A: 36 nM

Q: With `COCC[C@@H]1N=C(c2ccc(Cl)cc2)c2c(sc(C)c2C)-n2c(C)nnc21` as the compound, how does the IC50 [1] read?
A: 390 nM

Q: With `Cc1sc2c(c1C)C(c1ccc(Cl)cc1)=NC(Cc1ccccn1)c1nnc(C)n1-2` (racemic) as the compound, how does the IC50 [1] read?
A: 330 nM

Q: Which IC50 [1] does the source give for `COC(=O)C[C@@H]1N=C(c2ccc(-c3ccccc3C#N)cc2)c2c(sc(C)c2C)-n2c(C)nnc21` here?
A: 180 nM

Q: With `CCOC(=O)C[C@@H]1N=C(c2ccc(Cl)cc2)c2c(sc(C)c2C)-n2c(C)nnc21` as the compound, how does the IC50 [1] read?
A: 12 nM

Q: Which IC50 [1] does the source give for `COC(=O)C[C@@H]1N=C(c2ccc(-c3cccc(OC(F)(F)F)c3)cc2)c2c(sc(C)c2C)-n2c(C)nnc21` here?
A: 160 nM

Q: With `Cc1sc2c(c1C)C(c1ccc(Cl)cc1)=NCc1nnc(C)n1-2` as the compound, how does the IC50 [1] read?
A: 2500 nM

Q: For `COC(=O)C[C@@H]1N=C(c2ccc(-c3cccc(S(C)(=O)=O)c3)cc2)c2c(sc(C)c2C)-n2c(C)nnc21`, which IC50 [1] is on record?
A: 9.8 nM

Q: With `COC(=O)C[C@@H]1N=C(c2ccc(-c3ccccc3OC)cc2)c2c(sc(C)c2C)-n2c(C)nnc21` as the compound, how does the IC50 [1] read?
A: 190 nM

Q: With `CCC1N=C(c2ccc(Cl)cc2)c2c(sc(C)c2C)-n2c(C)nnc21` (racemic) as the compound, how does the IC50 [1] read?
A: 340 nM

Q: For `Cc1sc2c(c1C)C(c1ccc(Cl)cc1)=N[C@@H](CC(=O)OC(C)(C)C)c1nnc(C)n1-2`, which IC50 [1] is on record?
A: 110 nM

Q: Which IC50 [1] does the source give for `COC(=O)C[C@@H]1N=C(c2ccc(-c3ccc(C#N)cc3)cc2)c2c(sc(C)c2C)-n2c(C)nnc21` here?
A: 33 nM

Q: For `Cc1sc2c(c1C)C(c1ccc(Cl)cc1)=NC(C)c1nnc(C)n1-2` (racemic), which IC50 [1] is on record?
A: 390 nM

Q: Which IC50 [1] does the source give for `COC(=O)C[C@@H]1N=C(c2ccc(-c3ccc(OC)cc3)cc2)c2c(sc(C)c2C)-n2c(C)nnc21` here?
A: 53 nM

Q: With `Cc1sc2c(c1C)C(c1ccc(Cl)cc1)=NC(Cc1cccnc1)c1nnc(C)n1-2` (racemic) as the compound, how does the IC50 [1] read?
A: 400 nM

Q: With `COC(=O)C[C@@H]1N=C(c2ccc(-c3ccc(O)c(C#N)c3)cc2)c2c(sc(C)c2C)-n2c(C)nnc21` as the compound, how does the IC50 [1] read?
A: 2.5 nM

Q: Which IC50 [1] does the source give for `CCCOC(=O)C[C@@H]1N=C(c2ccc(Cl)cc2)c2c(sc(C)c2C)-n2c(C)nnc21` here?
A: 30 nM

Q: With `Cc1sc2c(c1C)C(c1ccc(Cl)cc1)=N[C@@H](CC(=O)OC(C)C)c1nnc(C)n1-2` as the compound, how does the IC50 [1] read?
A: 44 nM

Q: Which results are given for `COC(=O)C[C@@H]1N=C(c2ccc(-c3cccc(C#N)c3)cc2)c2c(sc(C)c2C)-n2c(C)nnc21`?
A: GI50 [2]: 3 nM; GI50 [3]: 7 nM; GI50 (A2780): 130 nM; GI50 [4]: 5270 nM; IC50 [1]: 26 nM; Activity (Mus musculus): Active; inhibition [5]: Dose-dependent effect; inhibition [6]: Dose-dependent effect; inhibition [7]: Dose-dependent effect; IC50 [8]: 33.9 nM; inhibition [9]: Active; inhibition [10]: Active; GI50 [11]: 19 nM; GI50 (Daudi): 67 nM; GI50 [12]: 829 nM; GI50 [13]: 69 nM; GI50 (B16): 80 nM; GI50 [14]: 104 nM; GI50 (LNCaP): 201 nM; GI50 [15]: 207 nM; GI50 (A549): > 10000 nM; GI50 [16]: 207 nM; GI50 [17]: > 10000 nM; GI50 (HeLa): 274 nM; GI50 [18]: 484 nM; GI50 [19]: 1500 nM; inhibition in vivo at 10 mg/kg [20]: 43%; inhibition in vivo at 30 mg/kg [21]: 65%; inhibition in vivo at 10 mg/kg [22]: 80%

Q: With `COC(=O)C[C@@H]1N=C(c2ccc(-c3cccc(NC(C)=O)c3)cc2)c2c(sc(C)c2C)-n2c(C)nnc21` as the compound, how does the IC50 [1] read?
A: 27 nM

Q: Which IC50 [1] does the source give for `COC(=O)C[C@H]1N=C(c2ccc(Cl)cc2)c2c(sc(C)c2C)-n2c(C)nnc21` here?
A: > 10000 nM

Q: With `Cc1sc2c(c1C)C(c1ccc(Cl)cc1)=N[C@@H](CCC#N)c1nnc(C)n1-2` as the compound, how does the IC50 [1] read?
A: 100 nM

Q: Which IC50 [1] does the source give for `Cc1sc2c(c1C)C(c1ccc(Cl)cc1)=N[C@@H](CC(=O)OCc1ccccc1)c1nnc(C)n1-2` here?
A: 36 nM

Q: Which inhibition [5] does the source give for `COC(=O)C[C@H]1N=C(c2ccc(-c3cccc(C#N)c3)cc2)c2c(sc(C)c2C)-n2c(C)nnc21` here?
A: inactive

Q: And the inhibition [6]?
A: inactive

Q: What about the inhibition [7] of the same compound?
A: inactive

Q: Which IC50 [1] does the source give for `Cc1sc2c(c1C)C(c1ccc(Cl)cc1)=NC(CCc1ccccc1)c1nnc(C)n1-2` (racemic) here?
A: 2680 nM

Q: With `COC(=O)C[C@@H]1N=C(c2ccc(Cl)cc2)c2c(sc(C)c2C)-n2c(C)nnc21` as the compound, how does the IC50 [1] read?
A: 38 nM

Q: Which IC50 [1] does the source give for `Cc1sc2c(c1C)C(c1ccc(Cl)cc1)=NC(Cc1ccccc1)c1nnc(C)n1-2` (racemic) here?
A: 500 nM

Q: With `COC(=O)CC1N=C(c2ccc(-c3ccccc3)cc2)c2c(sc(C)c2C)-n2c(C)nnc21` (racemic) as the compound, how does the IC50 [1] read?
A: 220 nM
